# Results published in PubChem BioAssay (NCI).
#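 In this assay, cells in 96-well plates receive the compound at five concentrations for 48 hours. Endpoints are linearly interpolated between the surrounding concentrations. TGI marks complete inhibition of growth.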
# How the values were obtained:
# Assay in all cases: NCI anticancer screen, dose series, 48 h
# SN12C renal = test system: SN12C renal
# DU-145 prostate = test system: DU-145 prostate
# SNB-75 CNS = test system: SNB-75 CNS
# SK-MEL-28 melanoma = test system: SK-MEL-28 melanoma
# SK-MEL-2 melanoma = test system: SK-MEL-2 melanoma
# IGROV1 ovarian = test system: IGROV1 ovarian
# HOP-62 NSCLC = test system: HOP-62 NSCLC
# EKVX NSCLC = test system: EKVX NSCLC
# CAKI-1 renal = test system: CAKI-1 renal
# KM12 colon = test system: KM12 colon
# RXF 393 renal = test system: RXF 393 renal
# A549 NSCLC = test system: A549 NSCLC
# UO-31 renal = test system: UO-31 renal
# OVCAR-8 ovarian = test system: OVCAR-8 ovarian
# SW-620 colon = test system: SW-620 colon
# OVCAR-3 ovarian = test system: OVCAR-3 ovarian
# UACC-62 melanoma = test system: UACC-62 melanoma
# K-562 leukemia = test system: K-562 leukemia
# NCI-H460 lung = test system: NCI-H460 lung
Compound,TGI (SN12C renal),TGI (DU-145 prostate),TGI (SNB-75 CNS),TGI (SK-MEL-28 melanoma),TGI (SK-MEL-2 melanoma),TGI (IGROV1 ovarian),TGI (HOP-62 NSCLC),TGI (EKVX NSCLC),TGI (CAKI-1 renal),TGI (KM12 colon),TGI (RXF 393 renal),TGI (A549 NSCLC),TGI (UO-31 renal),TGI (OVCAR-8 ovarian),TGI (SW-620 colon),TGI (OVCAR-3 ovarian),TGI (UACC-62 melanoma),TGI (K-562 leukemia),TGI (NCI-H460 lung)
Cc1ccc(-n2cnc3c(N)nc(N)nc32)cc1,> 100 µM,> 100 µM,> 100 µM,> 100 µM,> 100 µM,> 100 µM,> 100 µM,> 100 µM,> 100 µM,> 100 µM,> 100 µM,> 100 µM,> 100 µM,> 100 µM,> 100 µM,> 100 µM,> 100 µM,–,–
N#CC(C#N)N=Cc1ccncc1,> 100 µM,> 100 µM,> 100 µM,> 100 µM,> 100 µM,> 100 µM,> 100 µM,> 100 µM,> 100 µM,> 100 µM,> 100 µM,> 100 µM,–,> 100 µM,> 100 µM,> 100 µM,> 100 µM,> 100 µM,–
O=C(O)c1ccc(P(=O)(O)c2ccc(C(=O)O)cc2Br)c(Br)c1,> 100 µM,> 100 µM,> 100 µM,> 100 µM,> 100 µM,> 100 µM,> 100 µM,> 100 µM,> 100 µM,> 100 µM,> 100 µM,> 100 µM,> 100 µM,> 100 µM,> 100 µM,> 100 µM,> 100 µM,> 100 µM,–
COc1ccc(Nc2nnc(CCCCCCCCc3nnc(Nc4ccc(OC)cc4)o3)o2)cc1,> 100 µM,> 100 µM,> 100 µM,> 100 µM,> 100 µM,> 100 µM,> 100 µM,> 100 µM,> 100 µM,> 100 µM,> 100 µM,> 100 µM,> 100 µM,> 100 µM,> 100 µM,> 100 µM,–,> 100 µM,> 100 µM
Nc1nc(N)c2cc(Sc3ccc4nc(N)nc(N)c4c3)ccc2n1,> 100 µM,> 100 µM,> 100 µM,> 100 µM,> 100 µM,> 100 µM,> 100 µM,> 100 µM,> 100 µM,> 100 µM,> 100 µM,> 100 µM,> 100 µM,> 100 µM,> 100 µM,> 31.6 µM,–,> 100 µM,> 100 µM
CN1C2CCC1CC(CCOC(c1ccc(F)cc1)c1ccc(F)cc1)C2 (centres undefined),38.2 µM,33.5 µM,30.4 µM,31.7 µM,31.4 µM,32.1 µM,30.9 µM,27.7 µM,32.6 µM,30.8 µM,22.6 µM,35.7 µM,27.9 µM,32.1 µM,41.8 µM,32.4 µM,–,35.8 µM,32.2 µM
CN(C)C=Nc1cccc2nsnc12,> 100 µM,> 100 µM,> 100 µM,> 100 µM,> 100 µM,> 100 µM,> 100 µM,> 100 µM,> 100 µM,–,> 100 µM,> 100 µM,> 100 µM,> 100 µM,–,> 100 µM,> 100 µM,> 100 µM,–
COC(=O)c1c(O)ccc2c1c1c(n2Cc2ccccc2)C(=O)c2ccccc2C1=O,28.1 µM,49.9 µM,29.1 µM,31.7 µM,27.7 µM,25.8 µM,38.8 µM,36.6 µM,36.9 µM,29.7 µM,37 µM,22.6 µM,22.1 µM,26.2 µM,46 µM,47.5 µM,–,36.3 µM,59.8 µM
CC1=NN(C(=O)CC(=O)Nc2ccc(C)cc2)C(=O)C1N=Nc1ccc(C(=O)O)cc1 (centres undefined),> 100 µM,> 100 µM,> 100 µM,> 100 µM,> 100 µM,> 100 µM,> 100 µM,> 100 µM,> 100 µM,> 100 µM,> 100 µM,> 100 µM,> 100 µM,> 100 µM,> 100 µM,> 100 µM,> 100 µM,> 100 µM,–
CCC(Sc1cc(Cl)c(C)cc1S(=O)(=O)Nc1nc(N)nc(N(C)C)n1)C(=O)O (centres undefined),> 10 µM,> 10 µM,> 10 µM,> 10 µM,> 10 µM,> 10 µM,> 10 µM,> 10 µM,> 10 µM,> 10 µM,> 10 µM,> 10 µM,> 10 µM,> 10 µM,> 10 µM,> 10 µM,–,> 10 µM,> 10 µM
CC(=O)O[C@@H]1CC[C@@]2(C)C(CC[C@H]3[C@@H]4CC[C@H]([C@H](C)CCc5nc6ccc(C)cc6[nH]5)[C@@]4(C)CC[C@@H]32)C1 (some centres undefined),> 100 µM,> 100 µM,24.1 µM,> 100 µM,> 100 µM,19.1 µM,> 100 µM,53.3 µM,> 100 µM,31.7 µM,> 100 µM,> 100 µM,> 100 µM,> 100 µM,> 100 µM,> 100 µM,> 100 µM,> 100 µM,–
